Results reported in paper PMC12811658, “Design, Synthesis, and Structural Evolution of Pseudo‐Natural Product IDO1 Inhibitors and Degraders” (Angewandte Chemie (International Ed. in English), 2025).

Experiments:
[1] = target: T1, recombinant full-length human IDO1 (Homo sapiens, UniProt P14902); experiment: Isothermal titration calorimetry (ITC); format: binding; settings: 25 °C
T1 construct: The GST-tag of IDO1 was removed to obtain untagged full-length IDO1l using PreScission protease; GST (N, cleaved yes); made in house; own inference
T1 sequence (P14902 whole entry): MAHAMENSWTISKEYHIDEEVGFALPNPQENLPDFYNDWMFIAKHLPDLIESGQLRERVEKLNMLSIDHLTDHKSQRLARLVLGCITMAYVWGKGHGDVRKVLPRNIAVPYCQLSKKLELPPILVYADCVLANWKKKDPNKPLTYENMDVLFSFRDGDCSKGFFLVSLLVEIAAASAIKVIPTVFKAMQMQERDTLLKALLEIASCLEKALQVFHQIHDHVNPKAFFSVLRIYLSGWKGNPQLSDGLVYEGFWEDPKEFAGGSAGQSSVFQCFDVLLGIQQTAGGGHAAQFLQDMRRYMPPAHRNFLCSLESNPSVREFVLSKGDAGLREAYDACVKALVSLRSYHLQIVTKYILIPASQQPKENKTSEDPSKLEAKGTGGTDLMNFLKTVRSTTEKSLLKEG
Description: (§1) Incubation at 37 °C for 3 h. Representative data for n = 3. c) Time‐course of heme displacement from IDO1 detected by the absorbance at the Soret peak (404 nm) as a function of time. […] All curves were fit using a one‐site model with N = 1 and defined IDO1 concentration. Left plots show baseline corrected data, while right plots show integrated binding isotherms versus iDegs/IDO1 ratio. IDO1 protein (125 µM) was titrated into the stirred sample cell containing iDegs (25 µM, except for iDeg‐8 at 50 µM). Representative data for n = 3, except for iDeg‐9 (n = 2). g)–i) In vivo activity of iDeg‐6. NSG immunodeficient mice were injected with SKOV‐3 cells. Mice were treated with 18 intraperitoneal injections of iDeg‐6 (30 mg kg^−1) or vehicle. The pharmacological treatment was twice daily. Tumor volume was determined weekly by digital caliper. g) SKOV‐3 tumor growth curves in iDeg‐6‐treated mice (n = 12, green lines) or vehicle‐treated mice (n = 13, gray lines). Statistical analysis was performed by two‐way ANOVA: ****p < 0.001. h) Body weight changes during treatment window (mean values ± range). i) Survival data are shown by Kaplan‐Meier survival analysis. Mantel–Haenszel statistical analysis: p < 0.0001).
ITC was performed using the MicroCal PEAQ-ITC system (Malvern) at 25 °C. Recombinant human full-length IDO1 (rhIDO1) was buffer-exchanged into 100 mM phosphate buffer (50 mM KH₂PO₄ and 50 mM K₂HPO₄, pH 6.57) with 1 mM TECP using a 10 K Amicon® Ultra centrifugal filter (Millipore). The buffer exchange was repeated ten times to ensure complete removal of interfering components. The final protein sample was diluted in the same phosphate buffer prior to titration.125 μM protein in 100 mM phosphate buffer was loaded into the syringe, while 25 μM compound (except for iDeg-8, 50 μM) in 100 mM phosphate buffer was loaded to the cell. All samples were adjusted to 25 °C and degassed before loading. Titrations were performed at 25 °C with one injection of 0.4 µL, followed by 18 injections of 2 µL. Experiments were performed with three biological replicates except for iDeg-9 with two biological replicates. Data were analyzed using the MicroCal PEAQ-ITC Analysis software and were plotted using GraphPad Prism 9.0 (GraphPad, USA).

[2] = target: T2, recombinant human IDO1 (Homo sapiens, UniProt P14902); experiment: IDO1 enzymatic assay in vitro; format: biochemical; settings: pre-incubation 37 °C 45 min; for inhibition at 14 µM: mean ± SD; for IC50 / IDO1 activity IC50 [µM] (in vitro assay): determined if inhibition at 14 µM higher than 50%
T2 construct: The GST-tag of IDO1 was removed to obtain untagged full-length IDO1l using PreScission protease; GST (N, cleaved yes); made in house; own inference
T2 sequence (P14902 whole entry): as above

[3] = tested on: Kyn levels in BxPC3 cells (kynurenine generated by IDO1); experiment: Cellular Kyn assay (automated Kyn screening assay); format: cell-based; settings: Homo sapiens, BXPC-3, 48 h, IFN-γ, L-Trp and compounds 48 h, mean ± SD, read-out: IC50 (Kyn assay), reduction of kynurenine levels
[4] = target: IDO1 protein levels in BxPC3 cells (Homo sapiens, UniProt P14902); experiment: IDO1 immunoblotting (degradation); format: cell-based; parameters: endogenous in cells; host or cells: BxPC3 (DSMZ), IFN-γ stimulated; settings: for Max. degradation (%): 24 h incubation, mean ± SD; for Dmax at 0.1 µM: BXPC-3, @100 nM; for IDO1 protein level by immunoblotting (in words): IFN-γ 24 h, washout, compounds 24 h
Chain of IDO1 protein levels in BxPC3 cells (P14902 whole entry): as above

[5] = target: T1, recombinant full-length human IDO1; experiment: Thermal shift assay (nanoDSF); format: binding; settings: 50 µM, 3 h at 37 °C
Description: as §1, with “0.0001). […]” for “0.0001).”
The test compounds or DMSO (vehicle control) were incubated with recombinant full-length human IDO1 (rhIDO1; 10 µM) in 50 mM potassium phosphate buffer (pH 6.5) for 3 h at 37 °C. Following incubation, samples were centrifuged at 5,000 × g for 10 minutes, then the protein-compound solutions were loaded into capillaries, and thermal unfolding was assessed using the Prometheus Panta system (NanoTemper® Technologies, Germany). Fluorescence intensities at 330 nm and 350 nm were recorded at temperature increments of 0.115 °C from 20 °C to 90 °C. Melting temperatures (Tm) were automatically calculated using Prometheus NT.48 analysis software. The resulting thermal denaturation curves, with Tm defined as the temperature at the maximum derivative of the unfolding transition, were visualized and analysed using GraphPad Prism version 9.0 (GraphPad Software, USA).

[6] = target: T3, heme-bound IDO1 (holo-IDO1) (Homo sapiens, UniProt P14902); experiment: UV/Vis detection of heme-bound IDO1 (heme displacement); format: binding; settings: 50 µM; for heme displacement from holo-IDO1 (in words): 37 °C, 3 h, Soret band 404 nm; for time course of heme displacement (in words): absorbance at 404 nm over time, compared to iDeg-6 and -8
T3 construct: The GST-tag of IDO1 was removed to obtain untagged full-length IDO1l using PreScission protease; GST (N, cleaved yes); made in house; own inference
T3 sequence (P14902 whole entry): as above
Description: as §1
Representative data of n=3 biological replicates. c, IDO1 was incubated with compounds (50 µM) or DMSO (control). UV/VIS spectra were acquired at five time points to monitor heme loss over time. Data are representative of two replicates.
The test compounds or DMSO (vehicle control) were incubated with recombinant full-length human IDO1 (rhIDO1; 10 µM) in 50 mM potassium phosphate buffer (pH 6.5) for 3 h at 37 °C. Following incubation, samples were centrifuged at 5,000 × g for 10 minutes. UV/Vis absorption spectra were then recorded from 250 nm to 650 nm in 1 nm increments using UV-transparent microplates (UV-STAR®, Greiner Bio-One, Austria) on a Spark® multimode microplate reader (Tecan, Austria). Absorbance values were analyzed at 404 nm (A404), and were plotted using GraphPad Prism version 9.0 (GraphPad Software, USA).

[7] = target: T4, IDO1 protein in IFN-γ stimulated HeLa cells (Homo sapiens, UniProt P14902); experiment: IDO1 immunostaining (immunofluorescence); format: cell-based; settings: 24 h
T4 construct: endogenous in cells; host or cells: HeLa (DSMZ), IFN-γ stimulated
T4 sequence (P14902 whole entry): as above
Description: Figure 3 Comparison of IDO1 degradation efficiency for selected compounds. a) Detection of IDO1 levels using immunostaining. IFN‐γ stimulated HeLa cells were treated with the compounds for 24 h. IDO1 protein abundance was detected with IDO1 antibody. Data are mean values ± SD, n = 3. b) IDO1 protein levels in BxPC3 cells upon compounds treatment were detected using immunoblotting. BxPC3 cells were treated with IFN‐γ for 24 h prior to washout, followed by addition of compounds. Representative blot and quantified band intensities are shown (mean values ± SD, n = 3). See Figure S11a S12a for the uncropped blots. c) Key functions of hit compounds that influence degradation efficiency. d) Heatmap for IDO degradation efficiency. IDO1 levels were monitored as described in (c). See Table S1 for mean values and Figure S11b for the uncropped blots. e)–g) Dose dependent degradation of IDO1 protein in BxPC3 cells treated with iDeg‐7–9 and detected as described in (c). Representative data of n = 3 except for iDeg‐9 (n = 4). See Figure S12 S13 for the uncropped blots. h) Quantification of IDO1 protein levels from e‐g (mean values ± SD, n = 3 except for iDeg‐9 (n = 4). i) Tabulated inhibition and degradation ability of iDeg‐6–9. ND: not detected. j) Volcano plot of iDeg‐6‐induced changes on the global proteome. SKOV‐3 cells were treated with 10 µM iDeg‐6 or DMSO for 4 h followed by protein extraction, tryptic digest and LC‐MS/MS analysis (n = 4). Plot generated using UMSAP (T 0 = 0.5, S 0 = 0.5).
IFN-γ-stimulated Hela cells (5 ng/mL IFN-γ) were seeded in 96-well plates and incubated for 24 h. Subsequently, IFN-γ was washed out and cells were treated with compounds for additional 24 h. Cells were then washed once with PBS and fixed with 3.7% paraformaldehyde for 10 min at room temperature. Cells were washed three times with ice-cold PBS. […] Images were analyzed by SpectraMax Paradigm microplate reader (Molecular Devices) to extract IDO1 fluorescence intensity as well as the cell count. IDO1 fluorescence intensity was normalized to cell count. […]

-TΔS (ITC) [1] [kcal/mol] | ΔG (ITC) [1] [kcal/mol] | ΔH (ITC) [1] [kcal/mol] | Kd ([1]; one-site model) [µM] | inhibition at 14 µM [2] [%] | IC50 [2] [µM] | IC50 [3] [µM] | Max. degradation (%) ([4]; 10 nM) | Max. degradation (%) ([4]; 100 nM) | shift in IDO1 melting temperature ΔTm / binding in TSA (in words) [5] | heme displacement from holo-IDO1 (in words) [6] | Degradation Efficiency (%) ([4]; 100 nM, BxPC3 cells, heatmap Fig. 3d) | IDO1 protein level by immunoblotting (in words) ([4]; BxPC3 cells) | Kd [1] [µM] | time course of heme displacement (in words) [6] | Structure (SMILES) | Dmax at 0.1 µM ([4]; BxPC3 cells) [%] | DC50 ([4]; BxPC3 cells, ND: not detected, read-out: DC50 (half-maximal degradation concentration)) [µM] | IDO1 activity IC50 [µM] (in vitro assay) [2] | IDO1 staining fluorescence intensity (in words) [7]
 |  |  |  | < 25 |  | 0.12 ± 0.02 | 20 ± 9 (3) % | 37 ± 14 (3) % | identical binding in the TSA assay | displaced heme to a similar extent | 37 | modulate IDO1 abundance |  |  | CC(C)(C)c1ccc(S(=O)(=O)N2C[C@H]3C[C@H]4C[C@H](C4(C)C)[C@@]3(COC(=O)Nc3ccc(I)cc3)C2)cc1 [14 (iDeg-2)] |  |  | – (Inactive: >75% Kyn level observed up to a concentration of 14 µM and no IC50 value obtained) | reduced the fluorescence intensity of the IDO1 staining
15.6 | -9.1 | -24.7 ± 0.3 | 0.22 ± 0.02 | 64 ± 1 | 0.089 ± 0.03 | 0.005 | 20 ± 9 (9) % | 21 ± 20 (9) % | highest ΔT m value | most efficient heme displacement |  | barely affected the IDO1 level | 0.215 | faster | C#Cc1ccc(NC(=O)OC[C@]23CN(S(=O)(=O)c4ccc(C(C)(C)C(=O)O)cc4C)C[C@H]2C[C@H]2C[C@@H]3C2(C)C)cc1 [102 (iDeg-9), 2-(4-(((3aS,4R,6R,7aS)-3a-((((4-ethynylphenyl)carbamoyl)oxy)methyl)-5,5-dimethyloctahydro-2H-4,6-methanoisoindol-2-yl)sulfonyl)-3-methylphenyl)-2-methylpropanoic acid] | 21 |  |  | 
 |  |  |  | < 25 |  | 0.83 ± 0.31 |  |  |  |  |  | modulate IDO1 abundance |  |  | Cc1ccc(NC(=O)OC[C@]23CN(S(=O)(=O)c4ccc(C(C)(C)C)cc4)C[C@H]2C[C@H]2C[C@@H]3C2(C)C)cc1 [10 (iDeg-1), ((3aS,4R,6R,7aS)-2-((4-(tert-butyl)phenyl)sulfonyl)-5,5-dimethyloctahydro-3aH-4,6-methanoisoindol-3a-yl)methyl p-tolylcarbamate] |  |  | – (Inactive: >75% Kyn level observed up to a concentration of 14 µM and no IC50 value obtained) | reduced the fluorescence intensity of the IDO1 staining

Structure (SMILES) | -TΔS (ITC) [1] [kcal/mol] | ΔG (ITC) [1] [kcal/mol] | ΔH (ITC) [1] [kcal/mol] | Kd ([1]; one-site model) [µM] | inhibition at 14 µM [2] [%] | IC50 [2] [µM] | IC50 [3] [µM] | Max. degradation (%) ([4]; 10 nM) | Max. degradation (%) ([4]; 100 nM) | shift in IDO1 melting temperature ΔTm / binding in TSA (in words) [5] | heme displacement from holo-IDO1 (in words) [6] | Degradation Efficiency (%) ([4]; 100 nM, BxPC3 cells, heatmap Fig. 3d) | IDO1 protein level by immunoblotting (in words) ([4]; BxPC3 cells) | Kd [1] [µM] | time course of heme displacement (in words) [6] | Dmax at 0.1 µM ([4]; BxPC3 cells) [%] | DC50 ([4]; BxPC3 cells, ND: not detected, read-out: DC50 (half-maximal degradation concentration)) [µM] | IDO1 activity IC50 [µM] (in vitro assay) [2] | IDO1 staining fluorescence intensity (in words) [7]
C#Cc1ccc(NC(=O)OC[C@]23CN(S(=O)(=O)c4ccc(C(C)(C)C)cc4CC)C[C@H]2C[C@H]2C[C@@H]3C2(C)C)cc1 [99 (iDeg-8), ((3aS,4R,6R,7aS)-2-((4-(tert-butyl)-2-ethylphenyl)sulfonyl)-5,5-dimethyloctahydro-3aH-4,6-methanoisoindol-3a-yl)methyl (4-ethynylphenyl)carbamate] | 3.5 | -8.2 | -11.8 ± 0.7 | 0.94 | 61 ± 1 | 4 ± 3.3 | 0.0097 ± 0.002 | 66 ± 4 (3) % | 75 ± 7 (3) % |  |  |  |  |  |  | 75 | 0.003 |  | 
C#Cc1ccc(NC(=O)OC[C@]23CN(S(=O)(=O)c4ccc(C(C)(C)C(=O)O)cc4)C[C@H]2C[C@H]2C[C@@H]3C2(C)C)cc1 [101 (iDeg-7), 2-(4-(((3aS,4R,6R,7aS)-3a-((((4-ethynylphenyl)carbamoyl)oxy)methyl)-5,5-dimethyloctahydro-2H-4,6-methanoisoindol-2-yl)sulfonyl)phenyl)-2-methylpropanoic acid] | 13.2 | -9.4 | -22.6 ± 0.4 | 0.12 ± 0.02 | 75 ± 4 | 0.31 ± 0.06 | 0.021 ± 0.006 | 36 ± 10 (5) % | 54 ± 8 (5) % |  | most efficient heme displacement |  | only moderately reduced the IDO1 protein level | 0.122 | faster |  |  |  | 
